The results in this text go back to article PMC8485799, “Synthesis and Antiprotozoal Profile of 3,4,5‐Trisubstituted Isoxazoles” (ChemistryOpen, 2021).

What all share (type): cell-based
The test system of data set [1] is promastigote forms of Leishmania amazonensis (WHOM/BR/75/JOSEFA strain). Description: Antiproliferative assay (XTT), promastigote forms, 72 h. Conditions: for IC50: Leishmania amazonensis, promastigote form, 72 h, XTT, read-out: L. amazonensis IC50; for SIL-F, selectivity index (Fibroblast CC50/L. amazonensis IC50): fibroblast vs promastigote; for SIL-M, selectivity index (Macrophages CC50/L. amazonensis IC50): macrophages vs promastigote. As for the experimental part: (§1) The antiproliferative activity was determined in promastigote forms of Leishmania amazonensis (WHOM/BR/75/JOSEFA strain) and epimastigote forms of Trypanosoma cruzi (Y strain). The promastigote forms of L. amazonensis were cultured in Warren medium (brain heart infusion, hemin, and folic acid; pH 7.4) supplemented with 10 % fetal bovine serum (FBS) at 25 °C. The epimastigote forms of T.cruzi were cultured in LIT medium (liver infusion tryptose; hemin, and folic acid; pH 7.4) supplemented with 10 % FBS at 28 °C. Cytotoxicity in mammalian cells was determined in fibroblast line (L929) and macrophages (J774 A1). Fibroblasts were cultured in DMEM medium (pH 7.2) supplemented with 10 % FBS at 37 °C in a 5 % CO2 atmosphere. Macrophages were cultured in RPMI‐1640 (pH 7.2) medium supplemented with 10 % FBS at 37 °C in a 5 % CO2 atmosphere.
(§2) Stock solutions of the compounds were prepared in DMSO and then diluted in the respective medium.
(§3) Promastigote forms (1×10^6 parasites.mL^−1) were cultured in 96‐well plates in the presence and absence of different concentrations of compounds diluted in Warren medium supplemented with 10 % FBS and incubated for 72 h. The epimastigote forms (1×10^6 parasites.mL^−1) were cultured in 96‐well plates in the presence and absence of different concentrations of compounds diluted in LIT medium supplemented with 10 % FBS and incubated for 96 h. After treatment, the parasites were incubated with a solution of 2,3‐bis(2‐methoxy‐4‐nitro‐5‐sulfophenyl)‐2H‐tetrazolium‐5‐carboxanilide (XTT; 0.5 mg.mL^−1) and phenazine methanesulfonate activator (PMS; 0.06 mg.mL^−1) in PBS for 4 h. Then, the absorbance was read in a microplate reader (Bio Tek‐Power Wave XS) at 450 nm.[20] The percentage of viable parasites was calculated in relation to the control in order to determine the concentration that inhibits 50 % of the protozoa (IC50). The control groups of each experiment received the same experimental conditions as the treated groups (cell concentration used, temperature, and incubation time).
On the technique in general: Tetrazolium assays rely on reduction of a dye to a coloured formazan, in cell work by metabolically active cells.

Data set [2] has as its system epimastigote forms of Trypanosoma cruzi (Y strain). In words: Antiproliferative assay (XTT), epimastigote forms, 96 h. Conditions: for IC50: Trypanosoma cruzi, epimastigote form, 96 h, XTT, read-out: T. cruzi IC50; for SIT-F, selectivity index (Fibroblast CC50/T. cruzi IC50): fibroblast vs epimastigote; for SIT-M, selectivity index (Macrophages CC50/T. cruzi IC50): macrophages vs epimastigote. As for the experimental part:
as §1, §2, §3

Data set [3] is described as follows: Cytotoxicity assay in mammalian cells (MTT), fibroblasts, 72 h. The following applies: mouse, L929 fibroblast cells, pH 7.2; 50 % inhibition of fibroblast growth, 72 h, MTT. The method, then: as §1, §2
(§4) Fibroblast cell (2.5×10^5 cells.mL^−1) suspensions were prepared in DMEM medium supplemented with 10 % FBS and added to 96‐well plates. Then, the plates were incubated at 37 °C in a CO2 atmosphere for 24 h to obtain confluent cell growth. After incubation, cells were treated with different concentrations of compounds diluted in DMEM for 72 h or left untreated. Macrophage (5×10^5 cells.mL^−1) suspensions were prepared in RPMI‐1640 medium supplemented with 10 % FBS and added to 96‐well plates. Then, the plates were incubated at 37 °C in a CO2 atmosphere for 24 h to obtain confluent cell growth. After incubation, cells were treated with different concentrations of compounds diluted in RPMI‐1640 for 48 h or left untreated. After treatment, the medium was removed, and cells were incubated with MTT (2 mg.mL^−1) for 4 h. Then, DMSO was added for solubilization of the formazan and analyzed with a reading microplate reader (BIO‐TEK PowerWave XS spectrophotometer) at […].[20] The percentage of viable cells was calculated in relation to the untreated control group to determine the cytotoxic concentration in 50 % of the cells (CC50). The control groups of each experiment received the same experimental conditions as the treated groups (cell concentration used, temperature, CO2, and incubation time).

A short description of data set [4]: Cytotoxicity assay in mammalian cells (MTT), macrophages, 48 h. Conditions: mouse, J774 A1 macrophages, pH 7.2; 50 % inhibition of macrophages growth, 48 h, MTT. The method, then:
as §1, §2, §4

Molecules are shown by their SMILES.

Usually IC50 stands for the midpoint of a concentration-inhibition curve. In general, CC50 refers to the concentration giving 50% cytotoxicity. A low value points to harm at low concentration.

Regarding `COc1ccc(NCc2c(C(=O)N/N=C/c3ccccc3)noc2-c2ccc([N+](=O)[O-])cc2)cc1` [4 ac], in data set [1], the IC50 is 14.5 ± 2.2 µM; the “SIL-F, selectivity index (Fibroblast CC50/L. amazonensis IC50)” value (shortened to “SIL-F, selectivity index”) is given as 16.63; the “SIL-M, selectivity index (Macrophages CC50/L. amazonensis IC50)” value (from here on “SIL-M, selectivity index”) was determined as 14.43. In data set [2], the IC50 was 18.7 ± 1.4 µM; the “SIT-F, selectivity index (Fibroblast CC50/T. cruzi IC50)” value (shortened to “SIT-F, selectivity index”) turned out to be 12.89; the “SIT-M, selectivity index (Macrophages CC50/T. cruzi IC50)” value (from here on “SIT-M, selectivity index”) came to 11.19. This molecule registered a CC50 at 72 h in data set [3] of 241 ± 3.8 µM. In data set [4], this molecule yielded a CC50 at 48 h of 209 ± 8.5 µM.
As to `O=C(N/N=C/c1ccccn1)c1noc(-c2ccc([N+](=O)[O-])cc2)c1CNc1ccc(Cl)cc1` [5 ab], in data set [1], the IC50 came out at 26 ± 2.1 µM; the “SIL-F, selectivity index” value is 3.88; the “SIL-M, selectivity index” value is recorded as 3.55. Further, in data set [2], the IC50 came to 24.7 ± 2.9 µM; the “SIT-F, selectivity index” value came out at 4.08; the “SIT-M, selectivity index” value worked out at 3.81. Also, half-maximal cytotoxicity in data set [3] (CC50 at 72 h) was put at 101 ± 4.4 µM. Also, the CC50 at 48 h in data set [4] was 94.2 ± 3.9 µM.
Consider `COc1ccc(NCc2c(C(=O)N/N=C/c3ccccn3)noc2-c2ccc([N+](=O)[O-])cc2)cc1` [5 ac], for which the IC50 in data set [1] and in data set [2] was more than 200 µM in each case. Moreover, in data set [3], the CC50 at 72 h amounted to 801 ± 10.4 µM. In data set [4], this molecule came in with a CC50 at 48 h of 723.6 ± 3 µM.
For the molecule `COc1ccc(NCc2c(C(=O)N/N=C/c3ccccn3)noc2-c2ccccc2)cc1` [5 bc], in data set [1], the IC50 was determined as 17.9 ± 3.7 µM; the “SIL-F, selectivity index” value is 10.3; the “SIL-M, selectivity index” value stood at 9.88. For the same molecule, in data set [2], the IC50 was 19.4 ± 1.1 µM; the “SIT-F, selectivity index” value is on record as 9.50; the “SIT-M, selectivity index” value was 9.11. Further, the CC50 at 72 h in data set [3] was found to be 184 ± 5.1 µM. The CC50 at 48 h in data set [4] stood at 177 ± 9.8 µM.
On to `COc1ccc(NCc2c(C(=O)N/N=C/c3ccccn3)noc2-c2ccc(F)cc2)cc1` [5 cc], for which, in data set [1], the IC50 came to 18 ± 2.5 µM; the “SIL-F, selectivity index” value is 16.16; the “SIL-M, selectivity index” value is given as 14.18. Further, in data set [2], the IC50 was 19.7 ± 0.9 µM; the “SIT-F, selectivity index” value is on record as 14.76; the “SIT-M, selectivity index” value is reported as 12.96. The same molecule had a cytotoxic concentration (CC50) at 72 h in data set [3] of 291 ± 4.7 µM. Also, the CC50 at 48 h in data set [4] came out at 255 ± 8.1 µM.
In the case of `O=C(N/N=C/c1ccc(-c2cccs2)s1)c1noc(-c2ccc([N+](=O)[O-])cc2)c1CNc1ccc(Cl)cc1` [6 ab], in data set [1], the IC50 was determined as 12.7 ± 1.1 µM; the “SIL-F, selectivity index” value is 9.12; the “SIL-M, selectivity index” value was 7.50. In data set [2], the IC50 was found to be 13.8 ± 1.5 µM; the “SIT-F, selectivity index” value turned out to be 8.39; the “SIT-M, selectivity index” value turned out to be 6.91. In data set [3], this molecule yielded a CC50 at 72 h of 116 ± 5.5 µM. In data set [4], this molecule returned a CC50 at 48 h of 95.3 ± 5.3 µM.
As to `COc1ccc(NCc2c(C(=O)N/N=C/c3ccc(-c4cccs4)s3)noc2-c2ccc([N+](=O)[O-])cc2)cc1` [6 ac], in data set [1], the IC50 turned out to be 48.9 ± 7.1 µM; the “SIL-F, selectivity index” value is given as 4.72; the “SIL-M, selectivity index” value was 3.75. Besides, in data set [2], the IC50 was determined as 52.5 ± 2.9 µM; the “SIT-F, selectivity index” value was determined as 4.40; the “SIT-M, selectivity index” value is 3.50. The molecule also yielded a CC50 at 72 h in data set [3] of 231 ± 5.9 µM. The molecule further registered a CC50 at 48 h in data set [4] of 184 ± 3 µM.
As to `O=C(N/N=C/c1ccc(-c2cccs2)s1)c1noc(-c2ccc(F)cc2)c1CNc1ccccc1` [6 ca], in data set [1], the IC50 worked out at 34.6 ± 2.4 µM; the “SIL-F, selectivity index” value is given as 11.2; the “SIL-M, selectivity index” value is listed as 8.92. Moreover, in data set [2], the IC50 was found to be 42.7 ± 5.6 µM; the “SIT-F, selectivity index” value stood at 9.07; the “SIT-M, selectivity index” value amounted to 7.22. This molecule also had a CC50 at 72 h in data set [3] of 388 ± 4.7 µM.
